Measured values: patent publication US20120178738A1, “DIBENZO [B,F] [1,4]OXAZAPINE COMPOUNDS” (ARYX THERAPEUTICS, INC., priority 2007, published 2012)

How the values were obtained:
[1] = biological target: T1, 5-HT2A receptor (Rattus norvegicus, UniProt P14842); experiment: cell-based; conditions: read-out: 5HT2A (pKb) (converted)
T1 construct: Eight strips of tissue (0.5 cm long) were cut. and were mounted in 10 ml organ baths; tissue Charles River Laboratories; host or cells: rat aorta strips, endothelium removed
Procedure: The rat aorta (approximately 7 cm) was isolated and removed from the animal (male Sprague Dawley rat, Charles River Laboratories, Hollister, Calif.). The endothelium was removed mechanically. Eight strips of tissue (0.5 cm long) were cut. and were mounted in 10 ml organ baths kept at 37° C. with Krebs solution (composition in mM: NaCl (118.2), KCl (4.6), CaCl2 (2.5), MgSO4 (1.2), KH2PO4 (1.2), NaHCO3 (24.8) and dextrose (10.0)) that was constantly aerated with carbogen gas (95% O2/5% CO2) to obtain a pH of 7.4. The tissues were subjected to a resting tension of 2 g (3 times, 15 minutes apart, equilibrated in Krebs solution). The tissues were then washed 15 minutes later. Ten minutes later, the tissues were then exposed to 0.1 μM phenylephrine. At the maximal effect, 1 μM acetylcholine was added to confirm the absence of endothelium and then washed twice, 2 minutes apart.
Contractions were recorded as changes in tension from baseline and expressed as a percentage of the maximum response of the agonist (5-HT) concentration-effect curve. Agonist concentration-response curves were fitted using a nonlinear iterative fitting program (GraphPad Prism) using the relationship of Parker and Waud (Parker, R. B. and Waud, D. R. (1971). Pharmacological estimation of drug-receptor dissociation constants. Statistical evaluation. I. Agonists. J. Pharmacol. Exp. Ther., 177, 1-12). Agonist potency was expressed as EC50 (molar concentration of agonist producing 50% of the maximum response). Concentration-ratios (CRs) were determined from EC50 values in the presence and absence of antagonist and antagonist affinity estimates (pKB and pA2 values) were determined. All data are expressed as mean±s.e. mean.

[2] = biological target: T2, human D2s dopamine receptors (Homo sapiens, UniProt P14416); experiment: hD2S receptor radioligand binding ([3H]spiperone); conditions: pKi reported on a scale of 1 through 5
T2 construct: expressed in transfected cells; host or cells: Chinese hamster ovary cells (membranes)
Procedure: (§1) Consistent with standard competition radioligand binding assays, the methodology was based on displacement of radioligand from tissues (or cell lines) bearing the receptor of interest (Cheng, Y. and Prusoff, W. H. (1973). Biochem. Pharmacol. 22, 3099-3108). The measurements were based on the binding of a single concentration of radiolabeled ligand in the presence of various concentrations of unlabeled ligand.
(§2) Tissues (or cellular plasma membrane fractions) were incubated in the presence of radioligand at equilibrium and in the presence of a range of concentrations of the test compounds (which were non-radiolabeled), and the displaced radioligand was separated from the membranes by filtration. Nonspecific binding was assessed by measuring displacement of the radioligand in the presence of a compound known to block binding of the radioligand to the receptor. Finally, the concentration-response relationship for radioligand displacement (corrected for non-specific binding) was used to assess binding of the test compound to the receptor.

[3] = biological target: T3, human D2L dopamine receptors (Homo sapiens, UniProt P14416); experiment: hD2L receptor radioligand binding ([3H]spiperone); conditions: pKi reported on a scale of 1 through 5; read-out: D2L (pKi) (converted)
T3 construct: expressed in transfected cells; host or cells: insect Sf9 cells (membranes)
Procedure: as §1, §2

[4] = biological target: T4, human 5HT1A receptors (Homo sapiens, UniProt P08908); experiment: h5-HT1A receptor radioligand binding ([3H]8OH-DPAT); conditions: pKi reported on a scale of 1 through 5
T4 construct: expressed in transfected cells; host or cells: Chinese hamster ovary cells (membranes)
T4 sequence (P08908 1-422): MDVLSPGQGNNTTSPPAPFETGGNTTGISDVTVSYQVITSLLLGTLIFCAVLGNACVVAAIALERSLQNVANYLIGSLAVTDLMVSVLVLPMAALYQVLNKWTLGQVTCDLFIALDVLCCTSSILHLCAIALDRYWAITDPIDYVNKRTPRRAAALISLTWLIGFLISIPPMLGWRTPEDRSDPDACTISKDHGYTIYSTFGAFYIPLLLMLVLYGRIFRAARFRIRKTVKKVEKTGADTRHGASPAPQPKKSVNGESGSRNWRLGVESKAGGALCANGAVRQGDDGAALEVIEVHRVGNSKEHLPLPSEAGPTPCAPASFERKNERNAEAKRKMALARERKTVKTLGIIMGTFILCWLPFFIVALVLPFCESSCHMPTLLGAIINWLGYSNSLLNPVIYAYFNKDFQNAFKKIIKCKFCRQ
Procedure: as §1, §2

[5] = biological target: T5, human 5HT2C receptors (Homo sapiens, UniProt P28335); experiment: h5-HT2C receptor radioligand binding ([3H]Mesulergine); conditions: pKi reported on a scale of 1 through 5
T5 construct: expressed in transfected cells; host or cells: human embryo kidney cells (membranes)
T5 sequence (P28335 33-458): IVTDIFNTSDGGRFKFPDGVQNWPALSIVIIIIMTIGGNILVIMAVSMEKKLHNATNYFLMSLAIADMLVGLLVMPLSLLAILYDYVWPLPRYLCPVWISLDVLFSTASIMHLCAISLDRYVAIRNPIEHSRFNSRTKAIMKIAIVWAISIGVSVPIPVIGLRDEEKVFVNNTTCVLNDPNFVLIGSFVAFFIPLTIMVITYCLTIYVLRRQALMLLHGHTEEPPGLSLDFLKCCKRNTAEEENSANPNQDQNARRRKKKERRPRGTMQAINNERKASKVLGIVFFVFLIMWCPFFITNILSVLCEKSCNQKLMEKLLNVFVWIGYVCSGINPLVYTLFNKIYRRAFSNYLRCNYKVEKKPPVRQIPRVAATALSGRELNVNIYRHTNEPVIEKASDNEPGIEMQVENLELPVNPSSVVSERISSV
Procedure: The measurements were based on the binding of a single concentration of radiolabeled ligand in the presence of various concentrations of unlabeled ligand.
as §2

[6] = biological target: T6, human M3 receptors (Homo sapiens, UniProt P20309); experiment: hM3 receptor radioligand binding ([3H]NMS); conditions: pKi reported on a scale of 1 through 5; read-out: M3 (pKi) (converted)
T6 construct: expressed in transfected cells; host or cells: Chinese hamster ovary cells (membranes)
Procedure: as §1, §2

[7] = biological target: T7, human H1 receptors (Homo sapiens, UniProt P35367); experiment: hH1 receptor radioligand binding ([3H]Pyrilamine); conditions: pKi reported on a scale of 1 through 5
T7 construct: expressed in transfected cells; host or cells: Chinese hamster ovary cells (membranes)
Procedure: as §1, §2

[8] = biological target: T8, human 5HT7 receptors (Homo sapiens, UniProt P34969); experiment: h5-HT7 receptor radioligand binding ([3H]5-CT); conditions: pKi reported on a scale of 1 through 5; read-out: 5HT7 (pKi) (converted)
T8 construct: expressed in transfected cells; host or cells: Chinese hamster ovary cells (membranes)
Procedure: as §1, §2

[9] = biological target: T9, human M1 receptors (Homo sapiens, UniProt P11229); experiment: hM1 receptor radioligand binding ([3H]NMS); conditions: pKi reported on a scale of 1 through 5
T9 construct: expressed in transfected cells; host or cells: Chinese hamster ovary cells (membranes)
T9 sequence (P11229 1-460): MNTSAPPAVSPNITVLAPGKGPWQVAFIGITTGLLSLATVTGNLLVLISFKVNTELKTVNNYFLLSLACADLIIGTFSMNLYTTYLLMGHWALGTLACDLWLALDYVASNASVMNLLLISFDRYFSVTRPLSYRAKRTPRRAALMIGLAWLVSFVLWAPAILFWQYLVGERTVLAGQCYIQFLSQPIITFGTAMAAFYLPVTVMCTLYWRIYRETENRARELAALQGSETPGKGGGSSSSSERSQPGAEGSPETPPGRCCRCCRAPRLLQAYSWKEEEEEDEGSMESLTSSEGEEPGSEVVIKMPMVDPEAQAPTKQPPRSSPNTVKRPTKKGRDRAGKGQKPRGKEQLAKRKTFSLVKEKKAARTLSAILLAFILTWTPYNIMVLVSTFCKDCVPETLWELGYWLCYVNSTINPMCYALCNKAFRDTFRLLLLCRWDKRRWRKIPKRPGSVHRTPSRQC
Procedure: as §1, §2

T2 sequence (P14416 1-414 isoform P14416-2): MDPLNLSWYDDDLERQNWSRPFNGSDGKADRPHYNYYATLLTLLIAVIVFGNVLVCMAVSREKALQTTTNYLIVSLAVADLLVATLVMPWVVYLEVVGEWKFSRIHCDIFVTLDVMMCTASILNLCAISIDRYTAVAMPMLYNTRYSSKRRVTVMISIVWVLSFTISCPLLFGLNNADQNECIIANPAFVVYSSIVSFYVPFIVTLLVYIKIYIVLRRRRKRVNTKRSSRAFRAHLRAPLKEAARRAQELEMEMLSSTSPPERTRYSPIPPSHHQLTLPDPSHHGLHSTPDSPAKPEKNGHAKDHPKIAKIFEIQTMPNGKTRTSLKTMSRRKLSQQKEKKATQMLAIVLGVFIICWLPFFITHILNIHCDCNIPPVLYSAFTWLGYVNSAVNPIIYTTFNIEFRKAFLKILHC
T1 sequence (P14842 whole entry): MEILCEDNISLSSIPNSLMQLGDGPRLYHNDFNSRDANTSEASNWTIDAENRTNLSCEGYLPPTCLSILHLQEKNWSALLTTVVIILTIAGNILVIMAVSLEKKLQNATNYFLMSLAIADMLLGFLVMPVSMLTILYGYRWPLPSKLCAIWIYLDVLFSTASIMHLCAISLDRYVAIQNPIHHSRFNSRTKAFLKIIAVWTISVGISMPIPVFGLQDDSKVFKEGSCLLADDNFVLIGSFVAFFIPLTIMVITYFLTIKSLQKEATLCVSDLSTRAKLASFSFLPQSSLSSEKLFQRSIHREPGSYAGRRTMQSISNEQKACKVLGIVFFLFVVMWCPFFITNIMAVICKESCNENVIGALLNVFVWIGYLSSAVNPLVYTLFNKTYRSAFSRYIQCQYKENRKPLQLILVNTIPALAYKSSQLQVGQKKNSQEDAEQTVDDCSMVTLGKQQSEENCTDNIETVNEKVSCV
T7 sequence (P35367 whole entry): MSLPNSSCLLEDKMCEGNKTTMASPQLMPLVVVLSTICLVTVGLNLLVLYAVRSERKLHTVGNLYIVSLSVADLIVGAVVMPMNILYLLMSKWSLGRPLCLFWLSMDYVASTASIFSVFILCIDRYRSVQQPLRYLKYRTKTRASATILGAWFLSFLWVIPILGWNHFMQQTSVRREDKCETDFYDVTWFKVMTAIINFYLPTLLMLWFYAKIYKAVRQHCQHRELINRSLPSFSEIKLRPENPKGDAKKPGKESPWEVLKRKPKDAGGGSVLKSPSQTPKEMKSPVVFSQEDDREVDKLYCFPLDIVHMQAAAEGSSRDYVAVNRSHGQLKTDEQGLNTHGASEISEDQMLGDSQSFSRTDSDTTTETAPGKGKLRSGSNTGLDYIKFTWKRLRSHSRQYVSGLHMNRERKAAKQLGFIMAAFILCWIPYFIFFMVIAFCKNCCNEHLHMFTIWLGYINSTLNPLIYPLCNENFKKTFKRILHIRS
T3 sequence (P14416 whole entry): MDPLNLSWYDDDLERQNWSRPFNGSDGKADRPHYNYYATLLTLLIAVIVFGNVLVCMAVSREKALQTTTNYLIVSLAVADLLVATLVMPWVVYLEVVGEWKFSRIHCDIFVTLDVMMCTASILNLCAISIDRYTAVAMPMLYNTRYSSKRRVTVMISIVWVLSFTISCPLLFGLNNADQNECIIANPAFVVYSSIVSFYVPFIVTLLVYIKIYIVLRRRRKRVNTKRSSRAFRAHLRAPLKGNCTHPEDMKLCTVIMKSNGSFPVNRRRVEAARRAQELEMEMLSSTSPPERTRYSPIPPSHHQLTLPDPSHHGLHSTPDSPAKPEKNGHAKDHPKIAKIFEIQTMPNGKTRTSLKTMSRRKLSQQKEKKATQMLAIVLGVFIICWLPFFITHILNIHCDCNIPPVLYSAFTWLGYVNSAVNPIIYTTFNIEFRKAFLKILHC
T8 sequence (P34969 whole entry): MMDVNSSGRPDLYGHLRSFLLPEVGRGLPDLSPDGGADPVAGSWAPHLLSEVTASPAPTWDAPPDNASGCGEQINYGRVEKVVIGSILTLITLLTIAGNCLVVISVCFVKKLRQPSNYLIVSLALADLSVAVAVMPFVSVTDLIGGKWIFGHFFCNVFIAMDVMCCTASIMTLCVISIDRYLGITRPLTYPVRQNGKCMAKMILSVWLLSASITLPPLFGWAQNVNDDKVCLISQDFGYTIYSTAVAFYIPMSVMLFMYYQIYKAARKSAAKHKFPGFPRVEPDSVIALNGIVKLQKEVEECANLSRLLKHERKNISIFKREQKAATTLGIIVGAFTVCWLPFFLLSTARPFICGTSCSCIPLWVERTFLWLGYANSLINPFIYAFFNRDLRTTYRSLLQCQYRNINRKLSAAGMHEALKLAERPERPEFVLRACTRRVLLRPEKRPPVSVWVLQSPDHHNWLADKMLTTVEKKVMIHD
T6 sequence (P20309 whole entry): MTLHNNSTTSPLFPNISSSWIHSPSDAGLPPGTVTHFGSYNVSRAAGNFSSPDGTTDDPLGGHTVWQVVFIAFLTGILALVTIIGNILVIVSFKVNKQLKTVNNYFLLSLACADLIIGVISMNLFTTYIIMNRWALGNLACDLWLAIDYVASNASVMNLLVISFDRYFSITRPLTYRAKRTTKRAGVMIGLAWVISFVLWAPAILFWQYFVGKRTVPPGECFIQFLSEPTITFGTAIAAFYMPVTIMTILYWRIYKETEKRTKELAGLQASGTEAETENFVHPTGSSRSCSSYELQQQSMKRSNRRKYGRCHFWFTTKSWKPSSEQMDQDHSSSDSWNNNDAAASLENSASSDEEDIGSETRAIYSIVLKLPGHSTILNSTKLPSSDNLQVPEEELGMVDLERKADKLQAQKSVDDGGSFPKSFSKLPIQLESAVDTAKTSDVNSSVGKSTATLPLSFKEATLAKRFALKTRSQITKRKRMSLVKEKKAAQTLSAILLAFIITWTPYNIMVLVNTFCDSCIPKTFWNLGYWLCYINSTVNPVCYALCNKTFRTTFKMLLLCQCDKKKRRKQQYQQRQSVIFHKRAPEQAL

SMILES | Kb [1] | Ki [2] | Ki [3] | Ki [4] | Ki [5] | Ki [6] | Ki [7] | Ki [8] | Ki [9]
O=C(C[C@H]1CN(C2=Nc3cc(Cl)ccc3Oc3ccccc32)CCN1)NCC(O)C(F)(F)F (stereo partly drawn) [GF, 2-((S)-4-((E)-8-chlorodibenzo[b,f][1,4]oxazepin-11-yl)piperazin-2-yl)-N-(3,3,3-trifluoro-2-hydroxypropyl)acetamide] | 10 to 30.9 nM | 631 to 2450 nM | 2510 to 9770 nM | 100 to 977 nM | 10 to 97.7 nM | > 10000 nM | 10 to 97.7 nM | 631 to 1550 nM | > 10000 nM
O=C(C[C@H]1CN(C2=Nc3cc(Cl)ccc3Oc3ccccc32)CCN1)N1CCOCC1 [GG, (S,E)-2-(4-(8-chlorodibenzo[b,f][1,4]oxazepin-11-yl)piperazin-2-yl)-1-morpholinoethanone] | 3.16 to 9.77 nM | 2510 to 9770 nM | 2510 to 9770 nM | 10 to 97.7 nM | 10 to 97.7 nM | 7940 to 9770 nM | ≤ 9.77 nM | 631 to 1550 nM | 1260 to 2450 nM
O=C(C[C@H]1CN(C2=Nc3cc(Cl)ccc3Oc3ccccc32)CCN1)N1CCC[C@H]1C(F)(F)F [GH, 2-((S)-4-((E)-8-chlorodibenzo[b,f][1,4]oxazepin-11-yl)piperazin-2-yl)-1-((S)-2-(trifluoromethyl)pyrrolidin-1-yl)ethanone] | 31.6 to 97.7 nM | 2510 to 9770 nM | 631 to 2450 nM | 100 to 977 nM | 100 to 977 nM | 7940 to 9770 nM | 10 to 97.7 nM | 1580 to 3890 nM | ≤ 1230 nM
O=C(C[C@H]1CN(C2=Nc3cc(Cl)ccc3Oc3ccccc32)CCN1)NCCO [FA, (S,E)-2-(4-(8-chlorodibenzo[b,f][1,4]oxazepin-11-yl)piperazin-2-yl)-N-(2-hydroxyethyl)acetamide] | 3.16 to 9.77 nM | 631 to 2450 nM | 631 to 2450 nM | 10 to 97.7 nM | 10 to 97.7 nM | > 10000 nM | 10 to 97.7 nM | 631 to 1550 nM | > 10000 nM
CC(C)(CO)NC(=O)C[C@H]1CN(C2=Nc3cc(Cl)ccc3Oc3ccccc32)CCN1 [EY, (S,E)-2-(4-(8-chlorodibenzo[b,f][1,4]oxazepin-11-yl)piperazin-2-yl)-N-(1-hydroxy-2-methylpropan-2-yl)acetamide] | 3.16 to 9.77 nM | 631 to 2450 nM | 631 to 2450 nM | 10 to 97.7 nM | 10 to 97.7 nM | > 10000 nM | 10 to 97.7 nM | 631 to 1550 nM | > 10000 nM
